These are literature values, as cited in patent US10772837B2, “Modified release multi-layer tablet cannabinoid formulations” (CannTab Therapeutics, Limited, priority 2017, dated 2020).

The conditions of data set [1]: pure CBD, twice-daily dosages, paediatric patients; ranging from total seizure freedom to these reductions.
The conditions of data set [2]: for solubility: in water.

Where two headings read alike, the source gives them in different places.

For the molecule `C=C(C)[C@@H]1CCC(C)=C[C@H]1c1c(O)cc(CCCCC)cc1O` [CBD, cannabidiol], in data set [1], the seizure reduction is on record as 25-80%.

On to `CCCCCc1cc(O)c2c(c1)OC(C)(C)[C@@H]1CCC(C)=C[C@@H]21` [Dronabinol, (−)-trans-Δ9-tetrahydrocannabinol], for which the BCS class result in data set [2] (NICHD/FDA Oral Formulations Platform Report 1) is “class 2 or class 4”. Besides, the solubility entry is “insoluble in water” in data set [2] and “low” in data set [2] (listed as dronabinol).
